Source: US10485235B2, “Aryloxypyrimidinyl ethers as herbicides” (FMC Corporation, priority 2015, dated 2019)

tested on: barnyardgrass (Echinochloa crus-galli); assay: Test B flooded paddy test, barnyardgrass; type: in vivo; settings: 250 g ai/ha, Flood; visual rating after 13 to 15 days; scale 0 to 100, 0 is no effect, 100 is complete control
Outline: (§1)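 2-leaf plants; flood to 3 cm, dose into water, hold depth; greenhouse 13–15 d; visual score 0–100 vs controls; dash = not tested.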

Row | SMILES | Plant response rating, Barnyardgrass
1 | N#CCCCOc1c(Cl)cccc1Oc1ncc(Cl)cn1 [Compound 45] | 0

tested on: barnyardgrass (Echinochloa crus-galli); assay: Test A preemergence, barnyardgrass; type: in vivo; settings: Preemergence, 31 g ai/ha; 0 to 100 scale (0 no effect, 100 complete control)
Outline: (§2)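 Planted seeds in loam soil mixed with sand; sprayed soil directly (pre). Grew seedlings to one- to two-leaf stage, 2–10 cm; sprayed foliage (post). Held in greenhouse ~10 days. Rated injury visually vs untreated controls, 0–100.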

Row | SMILES | Plant response rating, Barnyardgrass
2 | N#CCCCOc1c(Cl)cccc1Oc1ncc(Cl)cn1 [Compound 45] | 0

same assay, conditions: Preemergence, 125 g ai/ha; 0 to 100 scale (0 no effect, 100 complete control)

Row | SMILES | Plant response rating, Barnyardgrass
3 | N#CCCCOc1c(Cl)cccc1Oc1ncc(Cl)cn1 [Compound 45] | 10

tested on: foxtail, giant (giant foxtail, Setaria faberii); assay: Test A postemergence, giant foxtail; type: in vivo; settings: 31 g ai/ha, postemergence; 0 to 100 scale, 0 is no effect, 100 is complete control; approximately 10 days
Outline: as §2

Row | SMILES | Plant response rating, Foxtail, Giant
4 | N#CCCCOc1c(Cl)cccc1Oc1ncc(Cl)cn1 [Compound 45] | 0

same assay, conditions: 125 g ai/ha, postemergence; 0 to 100 scale, 0 is no effect, 100 is complete control; approximately 10 days

Row | SMILES | Plant response rating, Foxtail, Giant
5 | N#CCCCOc1c(Cl)cccc1Oc1ncc(Cl)cn1 [Compound 45] | 10

tested on: ryegrass, Italian (Italian ryegrass, Lolium multiflorum); assay: Test A preemergence, Italian ryegrass; type: in vivo; settings: Preemergence, 31 g ai/ha; 0 to 100 scale (0 no effect, 100 complete control)
Outline: as §2

Row | SMILES | Plant response rating, Ryegrass, Italian
6 | N#CCCCOc1c(Cl)cccc1Oc1ncc(Cl)cn1 [Compound 45] | 0

same assay, conditions: Preemergence, 125 g ai/ha; 0 to 100 scale (0 no effect, 100 complete control)

Row | SMILES | Plant response rating, Ryegrass, Italian
7 | N#CCCCOc1c(Cl)cccc1Oc1ncc(Cl)cn1 [Compound 45] | 0

tested on: pigweed (Amaranthus retroflexus); assay: Test A postemergence, pigweed; type: in vivo; settings: 31 g ai/ha, postemergence; 0 to 100 scale, 0 is no effect, 100 is complete control; approximately 10 days
Outline: as §2

Row | SMILES | Plant response rating, Pigweed
8 | N#CCCCOc1c(Cl)cccc1Oc1ncc(Cl)cn1 [Compound 45] | 20

same assay, conditions: 125 g ai/ha, postemergence; 0 to 100 scale, 0 is no effect, 100 is complete control; approximately 10 days

Row | SMILES | Plant response rating, Pigweed
9 | N#CCCCOc1c(Cl)cccc1Oc1ncc(Cl)cn1 [Compound 45] | 50

tested on: ragweed (common ragweed, Ambrosia elatior); assay: Test A preemergence, ragweed; type: in vivo; settings: Preemergence, 31 g ai/ha; 0 to 100 scale (0 no effect, 100 complete control)
Outline: as §2

Row | SMILES | Plant response rating, Ragweed
10 | N#CCCCOc1c(Cl)cccc1Oc1ncc(Cl)cn1 [Compound 45] | 0

same assay, conditions: Preemergence, 125 g ai/ha; 0 to 100 scale (0 no effect, 100 complete control)

Row | SMILES | Plant response rating, Ragweed
11 | N#CCCCOc1c(Cl)cccc1Oc1ncc(Cl)cn1 [Compound 45] | 0

tested on: ryegrass, Italian (Italian ryegrass, Lolium multiflorum); assay: Test A postemergence, Italian ryegrass; type: in vivo; settings: 31 g ai/ha, postemergence; 0 to 100 scale, 0 is no effect, 100 is complete control; approximately 10 days
Outline: as §2

Row | SMILES | Plant response rating, Ryegrass, Italian
12 | N#CCCCOc1c(Cl)cccc1Oc1ncc(Cl)cn1 [Compound 45] | 0

same assay, conditions: 125 g ai/ha, postemergence; 0 to 100 scale, 0 is no effect, 100 is complete control; approximately 10 days

Row | SMILES | Plant response rating, Ryegrass, Italian
13 | N#CCCCOc1c(Cl)cccc1Oc1ncc(Cl)cn1 [Compound 45] | 0

tested on: blackgrass (Alopecurus myosuroides); assay: Test A postemergence, blackgrass; type: in vivo; settings: 31 g ai/ha, postemergence; 0 to 100 scale, 0 is no effect, 100 is complete control; approximately 10 days
Outline: as §2

Row | SMILES | Plant response rating, Blackgrass
14 | N#CCCCOc1c(Cl)cccc1Oc1ncc(Cl)cn1 [Compound 45] | 0

same assay, conditions: 125 g ai/ha, postemergence; 0 to 100 scale, 0 is no effect, 100 is complete control; approximately 10 days

Row | SMILES | Plant response rating, Blackgrass
15 | N#CCCCOc1c(Cl)cccc1Oc1ncc(Cl)cn1 [Compound 45] | 0

tested on: kochia (Kochia scoparia); assay: Test A preemergence, kochia; type: in vivo; settings: Preemergence, 31 g ai/ha; 0 to 100 scale (0 no effect, 100 complete control)
Outline: as §2

Row | SMILES | Plant response rating, Kochia
16 | N#CCCCOc1c(Cl)cccc1Oc1ncc(Cl)cn1 [Compound 45] | 0

same assay, conditions: Preemergence, 125 g ai/ha; 0 to 100 scale (0 no effect, 100 complete control)

Row | SMILES | Plant response rating, Kochia
17 | N#CCCCOc1c(Cl)cccc1Oc1ncc(Cl)cn1 [Compound 45] | 30

tested on: corn (Zea mays); assay: Test A postemergence, corn; type: in vivo; settings: 31 g ai/ha, postemergence; 0 to 100 scale, 0 is no effect, 100 is complete control; approximately 10 days
Outline: as §2

Row | SMILES | Plant response rating, Corn
18 | N#CCCCOc1c(Cl)cccc1Oc1ncc(Cl)cn1 [Compound 45] | 0

same assay, conditions: 125 g ai/ha, postemergence; 0 to 100 scale, 0 is no effect, 100 is complete control; approximately 10 days

Row | SMILES | Plant response rating, Corn
19 | N#CCCCOc1c(Cl)cccc1Oc1ncc(Cl)cn1 [Compound 45] | 10

tested on: sedge, umbrella (small-flower umbrella sedge, Cyperus difformis); assay: Test B flooded paddy test, umbrella sedge; type: in vivo; settings: 250 g ai/ha, Flood; visual rating after 13 to 15 days; scale 0 to 100, 0 is no effect, 100 is complete control
Outline: as §1

Row | SMILES | Plant response rating, Sedge, Umbrella
20 | N#CCCCOc1c(Cl)cccc1Oc1ncc(Cl)cn1 [Compound 45] | 0

tested on: ducksalad (Heteranthera limosa); assay: Test B flooded paddy test, ducksalad; type: in vivo; settings: 250 g ai/ha, Flood; visual rating after 13 to 15 days; scale 0 to 100, 0 is no effect, 100 is complete control
Outline: as §1

Row | SMILES | Plant response rating, Ducksalad
21 | N#CCCCOc1c(Cl)cccc1Oc1ncc(Cl)cn1 [Compound 45] | 20

tested on: ragweed (common ragweed, Ambrosia elatior); assay: Test A postemergence, ragweed; type: in vivo; settings: 31 g ai/ha, postemergence; 0 to 100 scale, 0 is no effect, 100 is complete control; approximately 10 days
Outline: as §2

Row | SMILES | Plant response rating, Ragweed
22 | N#CCCCOc1c(Cl)cccc1Oc1ncc(Cl)cn1 [Compound 45] | 10

same assay, conditions: 125 g ai/ha, postemergence; 0 to 100 scale, 0 is no effect, 100 is complete control; approximately 10 days

Row | SMILES | Plant response rating, Ragweed
23 | N#CCCCOc1c(Cl)cccc1Oc1ncc(Cl)cn1 [Compound 45] | 10

tested on: galium (catchweed bedstraw, Galium aparine); assay: Test A postemergence, galium; type: in vivo; settings: 31 g ai/ha, postemergence; 0 to 100 scale, 0 is no effect, 100 is complete control; approximately 10 days
Outline: as §2

Row | SMILES | Plant response rating, Galium
24 | N#CCCCOc1c(Cl)cccc1Oc1ncc(Cl)cn1 [Compound 45] | 10

same assay, conditions: 125 g ai/ha, postemergence; 0 to 100 scale, 0 is no effect, 100 is complete control; approximately 10 days

Row | SMILES | Plant response rating, Galium
25 | N#CCCCOc1c(Cl)cccc1Oc1ncc(Cl)cn1 [Compound 45] | 20

tested on: rice (Oryza sativa); assay: Test B flooded paddy test, rice; type: in vivo; settings: 250 g ai/ha, Flood; visual rating after 13 to 15 days; scale 0 to 100, 0 is no effect, 100 is complete control
Outline: as §1

Row | SMILES | Plant response rating, Rice
26 | N#CCCCOc1c(Cl)cccc1Oc1ncc(Cl)cn1 [Compound 45] | 0

tested on: kochia (Kochia scoparia); assay: Test A postemergence, kochia; type: in vivo; settings: 31 g ai/ha, postemergence; 0 to 100 scale, 0 is no effect, 100 is complete control; approximately 10 days
Outline: as §2

Row | SMILES | Plant response rating, Kochia
27 | N#CCCCOc1c(Cl)cccc1Oc1ncc(Cl)cn1 [Compound 45] | 20

same assay, conditions: 125 g ai/ha, postemergence; 0 to 100 scale, 0 is no effect, 100 is complete control; approximately 10 days

Row | SMILES | Plant response rating, Kochia
28 | N#CCCCOc1c(Cl)cccc1Oc1ncc(Cl)cn1 [Compound 45] | 50

tested on: foxtail, giant (giant foxtail, Setaria faberii); assay: Test A preemergence, giant foxtail; type: in vivo; settings: Preemergence, 31 g ai/ha; 0 to 100 scale (0 no effect, 100 complete control)
Outline: as §2

Row | SMILES | Plant response rating, Foxtail, Giant
29 | N#CCCCOc1c(Cl)cccc1Oc1ncc(Cl)cn1 [Compound 45] | 0

same assay, conditions: Preemergence, 125 g ai/ha; 0 to 100 scale (0 no effect, 100 complete control)

Row | SMILES | Plant response rating, Foxtail, Giant
30 | N#CCCCOc1c(Cl)cccc1Oc1ncc(Cl)cn1 [Compound 45] | 30

tested on: pigweed (Amaranthus retroflexus); assay: Test A preemergence, pigweed; type: in vivo; settings: Preemergence, 31 g ai/ha; 0 to 100 scale (0 no effect, 100 complete control)
Outline: as §2

Row | SMILES | Plant response rating, Pigweed
31 | N#CCCCOc1c(Cl)cccc1Oc1ncc(Cl)cn1 [Compound 45] | 20

same assay, conditions: Preemergence, 125 g ai/ha; 0 to 100 scale (0 no effect, 100 complete control)

Row | SMILES | Plant response rating, Pigweed
32 | N#CCCCOc1c(Cl)cccc1Oc1ncc(Cl)cn1 [Compound 45] | 70

tested on: barnyardgrass (Echinochloa crus-galli); assay: Test A postemergence, barnyardgrass; type: in vivo; settings: 31 g ai/ha, postemergence; 0 to 100 scale, 0 is no effect, 100 is complete control; approximately 10 days
Outline: as §2

Row | SMILES | Plant response rating, Barnyardgrass
33 | N#CCCCOc1c(Cl)cccc1Oc1ncc(Cl)cn1 [Compound 45] | 0

same assay, conditions: 125 g ai/ha, postemergence; 0 to 100 scale, 0 is no effect, 100 is complete control; approximately 10 days

Row | SMILES | Plant response rating, Barnyardgrass
34 | N#CCCCOc1c(Cl)cccc1Oc1ncc(Cl)cn1 [Compound 45] | 10

tested on: wheat (Triticum aestivum); assay: Test A postemergence, wheat; type: in vivo; settings: 31 g ai/ha, postemergence; 0 to 100 scale, 0 is no effect, 100 is complete control; approximately 10 days
Outline: as §2

Row | SMILES | Plant response rating, Wheat
35 | N#CCCCOc1c(Cl)cccc1Oc1ncc(Cl)cn1 [Compound 45] | 0

same assay, conditions: 125 g ai/ha, postemergence; 0 to 100 scale, 0 is no effect, 100 is complete control; approximately 10 days

Row | SMILES | Plant response rating, Wheat
36 | N#CCCCOc1c(Cl)cccc1Oc1ncc(Cl)cn1 [Compound 45] | 0
